Assay results taken from PubChem BioAssay (NCI).
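Cultured in 96-well plates, cells were exposed to test compound for 48 hours across five concentrations. TGI is the concentration that stops growth completely.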

Columns and labels:
Assay in all cases: NCI-60 cell line screen, 48 h
[1] = test system: M14 melanoma
[2] = test system: NCI/ADR-RES ovarian
[3] = test system: UACC-62 melanoma
[4] = test system: SF-268 CNS
[5] = test system: MALME-3M melanoma
[6] = test system: SNB-75 CNS
[7] = test system: BT-549 breast
[8] = test system: NCI-H23 lung
[9] = test system: A549 NSCLC
[10] = test system: HT29 colon
[11] = test system: U251 CNS
[12] = test system: RPMI-8226 leukemia
[13] = test system: DLD-1 colon
[14] = test system: HOP-18 NSCLC
[15] = test system: NCI-H226 lung
[16] = test system: T-47D breast
[17] = test system: XF 498 CNS
[18] = test system: HCT-15 colon
[19] = test system: COLO 205 colon
[20] = test system: SW-620 colon
[21] = test system: OVCAR-4 ovarian
[22] = test system: K-562 leukemia
[23] = test system: SNB-19 CNS
[24] = test system: HCC-2998 colon
[25] = test system: HL-60(TB) leukemia
[26] = test system: MCF7 breast
[27] = test system: EKVX NSCLC
[28] = test system: HOP-62 NSCLC
[29] = test system: UO-31 renal
[30] = test system: DMS 114 small cell lung
[31] = test system: KM12 colon
[32] = test system: HCT-116 colon
[33] = test system: MDA-MB-231 breast
[34] = test system: A498 renal
[35] = test system: SR leukemia
[36] = test system: SK-MEL-5 melanoma
[37] = test system: SK-OV-3 ovarian
[38] = test system: CAKI-1 renal
[39] = test system: KM20L2 colon
[40] = test system: MDA-N
[41] = test system: PC-3 prostate
[42] = test system: NCI-H522 lung
[43] = test system: ACHN renal
[44] = test system: SK-MEL-2 melanoma
[45] = test system: SN12C renal
[46] = test system: UACC-257 melanoma
[47] = test system: IGROV1 ovarian
[48] = test system: 786-0 renal
[49] = test system: OVCAR-3 ovarian
[50] = test system: DU-145 prostate
[51] = test system: HS 578T breast
[52] = test system: DMS 273 small cell lung
[53] = test system: HOP-92 NSCLC
[54] = test system: OVCAR-5 ovarian
[55] = test system: CCRF-CEM leukemia
[56] = test system: OVCAR-8 ovarian
[57] = test system: SF-295 CNS
[58] = test system: NCI-H460 lung
[59] = test system: TK-10 renal
[60] = test system: SNB-78 CNS
[61] = test system: MDA-MB-435
[62] = test system: SF-539 CNS
[63] = test system: MOLT-4 leukemia
[64] = test system: RXF 393 renal
[65] = test system: SK-MEL-28 melanoma
[66] = test system: M19-MEL melanoma
[67] = test system: LOX IMVI melanoma
[68] = test system: LXFL 529 NSCLC

## O=C(c1ccc(F)cc1)c1cccc(C(=O)c2ccc(F)cc2)n1
[1]
  TGI: > 100 µM
[2]
  TGI: > 100 µM
[3]
  TGI: > 100 µM
[4]
  TGI: 67.8 µM
[5]
  TGI: > 100 µM
[6]
  TGI: 22.7 µM
[7]
  TGI: 18.5 µM
[8]
  TGI: 55.7 µM
[9]
  TGI: > 100 µM
[10]
  TGI: > 100 µM
[11]
  TGI: 44.5 µM
[12]
  TGI: > 100 µM
[13]
  TGI: > 100 µM
[14]
  TGI: > 100 µM
[15]
  TGI: > 78 µM
[16]
  TGI: > 100 µM
[17]
  TGI: > 59.7 µM
[18]
  TGI: > 100 µM
[19]
  TGI: > 100 µM
[20]
  TGI: > 100 µM
[21]
  TGI: > 100 µM
[22]
  TGI: > 100 µM
[23]
  TGI: 54 µM
[24]
  TGI: > 100 µM
[25]
  TGI: > 100 µM
[26]
  TGI: > 100 µM
[27]
  TGI: > 100 µM
[28]
  TGI: 48.6 µM
[29]
  TGI: 66.6 µM
[30]
  TGI: 96.4 µM
[31]
  TGI: > 100 µM
[32]
  TGI: 81.8 µM
[33]
  TGI: > 100 µM
[34]
  TGI: > 100 µM
[35]
  TGI: > 100 µM
[36]
  TGI: > 79.2 µM
[37]
  TGI: 52.5 µM
[38]
  TGI: > 100 µM
[39]
  TGI: > 100 µM
[40]
  TGI: > 100 µM
[41]
  TGI: > 100 µM
[42]
  TGI: 71.5 µM
[43]
  TGI: > 100 µM
[44]
  TGI: 42.9 µM
[45]
  TGI: > 56.2 µM
[46]
  TGI: > 56.2 µM
[47]
  TGI: 79.3 µM
[48]
  TGI: 77.1 µM
[49]
  TGI: > 100 µM
[50]
  TGI: > 100 µM
[51]
  TGI: > 94.8 µM
[52]
  TGI: > 100 µM
[53]
  TGI: 44.4 µM
[54]
  TGI: > 100 µM
[55]
  TGI: > 100 µM
[56]
  TGI: > 100 µM
[57]
  TGI: 39.3 µM
[58]
  TGI: > 100 µM
[59]
  TGI: 69.3 µM
[60]
  TGI: > 58.1 µM
[61]
  TGI: > 100 µM
[62]
  TGI: 56.3 µM
[63]
  TGI: > 100 µM
[64]
  TGI: 33.4 µM
[65]
  TGI: > 100 µM
[66]
  TGI: > 100 µM
[67]
  TGI: > 100 µM
[68]
  TGI: > 100 µM

## COc1ccccc1NC(=O)CC(=O)N1N=C(C)C(N=Nc2ccc(S(N)(=O)=O)cc2)C1=O (stereo not drawn)
[1]
  TGI: > 100 µM
[3]
  TGI: > 100 µM
[4]
  TGI: > 100 µM
[5]
  TGI: > 100 µM
[6]
  TGI: > 100 µM
[8]
  TGI: > 100 µM
[9]
  TGI: > 100 µM
[10]
  TGI: > 100 µM
[11]
  TGI: > 100 µM
[12]
  TGI: > 100 µM
[13]
  TGI: > 100 µM
[14]
  TGI: > 100 µM
[15]
  TGI: > 100 µM
[17]
  TGI: > 100 µM
[18]
  TGI: > 100 µM
[19]
  TGI: > 100 µM
[20]
  TGI: > 100 µM
[21]
  TGI: > 100 µM
[23]
  TGI: > 100 µM
[24]
  TGI: > 100 µM
[27]
  TGI: > 100 µM
[28]
  TGI: > 100 µM
[29]
  TGI: > 100 µM
[30]
  TGI: > 100 µM
[31]
  TGI: > 100 µM
[32]
  TGI: > 100 µM
[34]
  TGI: > 100 µM
[35]
  TGI: > 100 µM
[36]
  TGI: > 100 µM
[37]
  TGI: > 100 µM
[38]
  TGI: > 100 µM
[39]
  TGI: > 100 µM
[42]
  TGI: > 100 µM
[43]
  TGI: > 100 µM
[44]
  TGI: > 100 µM
[45]
  TGI: > 100 µM
[46]
  TGI: > 100 µM
[47]
  TGI: > 100 µM
[48]
  TGI: > 100 µM
[49]
  TGI: > 100 µM
[52]
  TGI: > 100 µM
[53]
  TGI: > 100 µM
[54]
  TGI: > 100 µM
[56]
  TGI: > 100 µM
[57]
  TGI: > 100 µM
[58]
  TGI: > 100 µM
[59]
  TGI: > 100 µM
[60]
  TGI: > 100 µM
[62]
  TGI: > 100 µM
[63]
  TGI: > 100 µM
[64]
  TGI: > 100 µM
[65]
  TGI: > 100 µM
[66]
  TGI: > 100 µM
[67]
  TGI: > 100 µM
[68]
  TGI: > 100 µM
